According to patent US20060052409A1, “Therapeutic or preventive agent for nausea/vomiting” (priority 2002, published 2006):

Assays:
[1] = system: morphine-induced nausea and vomiting; test: Morphine-induced nausea and vomiting in beagles; assay type: in vivo; settings: male beagles; for Anti-emetic effect of test compounds: dose at which the test compounds inhibited nausea and vomiting due to morphine: test compound i.v. 15 minutes before morphine 0.5 mg/kg i.v., observed for ten minutes
Protocol: Male beagles were used for the experiment. Frequencies of nausea and vomiting were visually observed for ten minutes after the administration of morphine.
Morphine (0.5 mg/kg) was intravenously administered into the foreleg of male beagles. […] The test compounds were intravenously administered into the foreleg 15 minutes before the administration of morphine.

[2] = system: nausea and vomiting due to morphine; settings: literature report; cited from earlier work
[3] = system: morphine-induced nausea and vomiting; test: Morphine-induced nausea and vomiting in ferrets; assay type: in vivo; settings: male ferrets; morphine 0.1-3 mg/kg s.c.; observed for one hour
Protocol: Male ferrets were used for the experiment. Frequencies of nausea and vomiting were visually observed from immediately after the administration of morphine to one hour after the administration.
Morphine (0.1-3 mg/kg) was subcutaneously administered to male ferrets. […] The inhibitory effects of NTI on nausea and vomiting due to morphine were then studied. NTI (5 mg/kg) was subcutaneously administered 30 minutes before the administration of morphine (0.6 mg/kg).

| Structure (SMILES) | Anti-emetic effect of test compounds: dose at which the test compounds inhibited nausea and vomiting due to morphine [1] | other results |
| --- | --- | --- |
| Oc1ccc2c3c1O[C@H]1c4c(c5cc(F)cc6c5n4CCC6)C[C@@]4(O)[C@@H](C2)N(CC2CC2)CCC314 [Compound 3, 17-(cyclopropylmethyl)-6,7-didehydro-4,5α-epoxy-3,14β-dihydroxy-1′,7′-trimethylene-5′-fluoro-6,7-2′,3′-indolomorphinan] | 1.0 mg/kg | – |
| Cc1c2c(nc3ccccc13)[C@@H]1Oc3c(O)ccc4c3C13CCN(CC1CC1)[C@H](C4)[C@]3(O)C2 [Compound 6, 17-(cyclopropylmethyl)-6,7-didehydro-4,5α-epoxy-3,14β-dihydroxy-6,7-2′,3′-(4′-methylquinolino)morphinan] | 3.0 mg/kg | – |
| C=CCN1CC[C@]23c4c5ccc(O)c4O[C@H]2C(=O)CC[C@@]3(O)[C@H]1C5 [naloxone] | – | Anti-emetic effect against nausea and vomiting due to morphine [2]: shows anti-emetic effects |
| Cn1c2c(c3ccc4c(c31)CCCC4)C[C@@]1(O)[C@H]3Cc4ccc(O)c5c4C1(CCN3CC1CC1)[C@H]2O5 [Compound 4, 17-(cyclopropylmethyl)-6,7-didehydro-4,5α-epoxy-3,14β-dihydroxy-6′,7′-cyclohexeno-1′-methyl-6,7-2′,3′-indolomorphinan] | 3.0 mg/kg | – |
| C[S+]([O-])c1cccc2c3c([nH]c12)[C@@H]1Oc2c(O)ccc4c2C12CCN(CC1CC1)[C@H](C4)[C@]2(O)C3 (stereo partly drawn) [Compound 2, 17-(cyclopropylmethyl)-6,7-didehydro-4,5α-epoxy-3,14β-dihydroxy-7′-methylsulfinyl-6,7-2′,3′-indolomorphinan] | 1.0 mg/kg | – |
| CN1CC[C@]23c4c5ccc(O)c4O[C@H]2[C@@H](O)C=C[C@H]3[C@H]1C5 [Morphine, morphine, reference compound] | – | Induction of nausea and vomiting [3]: remarkably induced at lower doses; Induction of nausea and vomiting ([1]; morphine 0.5 mg/kg i.v.): remarkably induced within 5 minutes |
| Oc1ccc2c3c1O[C@H]1c4nc5ccccc5cc4C[C@@]4(O)[C@@H](C2)N(CC2CC2)CCC314 [Compound 5, 17-(cyclopropylmethyl)-6,7-didehydro-4,5α-epoxy-3,14β-dihydroxy-6,7-2′,3′-quinolinomorphinan] | 1.0 mg/kg | – |
| C=CCN(CC=C)[C@@H](Cc1ccc(O)cc1)C(=O)NCC(=O)NCCS[C@@H](Cc1ccccc1)C(=O)N[C@@H](CC(C)C)C(=O)O [ICI-154129] | – | Anti-emetic effect against nausea and vomiting due to morphine [2]: cannot inhibit vomiting due to morphine |
| O=C1/C(=C/c2ccccc2)C[C@@]2(O)[C@H]3Cc4ccc(O)c5c4[C@@]2(CCN3CC2CC2)[C@H]1O5 [Compound 7, 7-benzylidene-17-(cyclopropylmethyl)-4,5α-epoxy-3,14β-dihydroxy-6-oxomorphinan] | 1.0 mg/kg | – |
